Assay results reported in the Kinase Knowledgebase extract (Sharma et al. 2016).

Biological target: MAPK14 (UniProt Q16539)
Test: Inhibition of MAPK14 Kinase Activity

MAPK14, sequence (Q16539 whole entry, looked up): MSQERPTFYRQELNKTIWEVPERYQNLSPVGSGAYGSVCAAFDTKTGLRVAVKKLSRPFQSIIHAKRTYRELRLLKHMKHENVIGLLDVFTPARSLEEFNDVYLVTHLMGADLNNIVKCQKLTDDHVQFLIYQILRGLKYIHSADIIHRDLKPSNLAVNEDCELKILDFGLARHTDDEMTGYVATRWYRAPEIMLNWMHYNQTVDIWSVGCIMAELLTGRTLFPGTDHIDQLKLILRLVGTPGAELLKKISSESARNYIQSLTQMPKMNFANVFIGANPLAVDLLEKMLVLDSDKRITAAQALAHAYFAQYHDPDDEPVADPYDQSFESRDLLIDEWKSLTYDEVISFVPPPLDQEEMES

Q: How did the IC50 turn out when `Cc1c(F)cc(C(=O)NC2CC2)cc1-c1ccc(C(=O)NC(C)C2CC2)cn1` (stereo unspecified) was run?
A: < 10 µM

Q: How did the IC50 turn out when `Cc1c(F)cc(C(=O)NC2CC2)cc1-c1ccc(C(=O)NC2CCC2)cn1` was run?
A: < 10 µM

Q: `Cc1c(F)cc(C(=O)NC2CC2)cc1-c1ccc(C(=O)NCCOC(C)(C)C)cn1` was tested. Which IC50 did it give?
A: < 10 µM

Q: With `Cc1c(F)cc(C(=O)NC2CC2)cc1-c1ccc(C(=O)N2CCCC(C)C2)cn1` (stereo unspecified) as the compound, how does the IC50 read?
A: < 10 µM

Q: For `Cc1ccc(CNC(=O)c2ccc(-c3cc(C(=O)NC4CC4)cc(F)c3C)nc2)o1`, which IC50 is on record?
A: < 10 µM

Q: With `CCC1(CC)CN(C(=O)c2ccc(-c3cc(C(=O)NC4CC4)cc(F)c3C)nc2)C1` as the compound, how does the IC50 read?
A: < 10 µM

Q: For `Cc1c(F)cc(C(=O)NC2CC2)cc1-c1ccc(C(=O)NCc2cccc(F)c2)cn1`, which IC50 is on record?
A: < 10 µM

Q: For `COc1ccc(NC(=O)c2ccc(-c3cc(NC(=O)c4ccoc4)ccc3C)nc2)cc1`, which IC50 is on record?
A: < 10 µM

Q: Which IC50 does the source give for `COc1cccc(CNC(=O)c2ccc(-c3cc(NC(=O)c4ccsc4)ccc3C)nc2)c1` here?
A: < 10 µM

Q: How did the IC50 turn out when `Cc1ccc(NC(=O)c2ccoc2)cc1-c1ccc(C(=O)NCc2cccc(NS(C)(=O)=O)c2)cn1` was run?
A: < 10 µM

Q: How did the IC50 turn out when `Cc1ccc(CNC(=O)c2ccc(-c3cc(C(=O)NC4CC4)cc(F)c3C)nc2)cc1` was run?
A: < 10 µM

Q: Which IC50 does the source give for `CCC1CCCN(C(=O)c2ccc(-c3cc(C(=O)NC4CC4)cc(F)c3C)nc2)C1` (stereo unspecified) here?
A: < 10 µM

Q: With `Cc1ccc(C(=O)NCC2CC2)cc1-c1ccc(C(=O)NCc2cccc(NS(C)(=O)=O)c2)cn1` as the compound, how does the IC50 read?
A: < 10 µM

Q: For `Cc1c(F)cc(C(=O)NC2CC2)cc1-c1ccc(C(=O)NC(C)CC(C)C)cn1` (stereo unspecified), which IC50 is on record?
A: < 10 µM

Q: For `Cc1cccc(CNC(=O)c2ccc(-c3cc(C(=O)NC4CC4)cc(F)c3C)nc2)c1`, which IC50 is on record?
A: < 10 µM

Q: `Cc1c(F)cc(C(=O)NC2CC2)cc1-c1ccc(C(=O)NCc2cc(F)ccc2F)cn1` was tested. Which IC50 did it give?
A: < 10 µM

Q: With `Cc1c(F)cc(C(=O)NC2CC2)cc1-c1ccc(C(=O)NCc2ccc(F)c(F)c2)cn1` as the compound, how does the IC50 read?
A: < 10 µM

Q: How did the IC50 turn out when `Cc1c(F)cc(C(=O)NC2CC2)cc1-c1ccc(C(=O)NCCC(C)C)cn1` was run?
A: < 10 µM

Q: For `CCCC(O)C(C)(C)NC(=O)c1ccc(-c2cc(C(=O)NC3CC3)cc(F)c2C)nc1` (stereo unspecified), which IC50 is on record?
A: < 10 µM

Q: Which IC50 does the source give for `COc1cccc(CNC(=O)c2ccc(-c3cc(C(=O)Nc4nccs4)ccc3C)nc2)c1` here?
A: < 10 µM

Q: With `COc1cccc(CNC(=O)c2ccc(-c3cc(C(=O)Nc4nncs4)ccc3C)nc2)c1` as the compound, how does the IC50 read?
A: < 10 µM
